Patent US20090029983A1, “NOVEL HETEROCYCLIC COMPOUNDS HAVING ANTI-HBV ACTIVITY” (priority 2005, published 2009)

System: HBV
Test: HBV screening assay (viral DNA in baculovirus-HBV transduced HepG2 cells)
Type: cell-based
Settings: Hepatitis B virus, HepG2, 72 h, read-out: EC50 (antiviral activity), HBV-transduced HepG2 cells, three days with compound, viral DNA by ELISA
Procedure: HepG2 cells were transduced using a baculovirus to deliver the HBV genome essentially as previously described (Delaney et al. in Hepatology 1998; 28: 1134-1146). Transduced cells were cultured in supplemented EMEM media with 10% fetal bovine serum in a 5% CO2 incubator at 37° C. for three days in the presence of test compounds. The cells were lysed in a buffer containing 0.5% NP-40 and […] proteinase K. A solid-phase hybridization was performed to capture the viral DNA and to label the target DNA with Digoxigenin-labeled DNA probes. The viral DNA was detected by ELISA, using horseradish peroxidase-conjugated anti-digoxigenin antibodies.
The EC50 values were determined using ExcelFit software from the inhibition values of a titration curve for each compound. For CC50 determinations, the same titration of compounds was co-cultured with non-transduced HepG2 for three days under the conditions described above. The Promega CellTiter 96 Aqueous One Solution Cell Proliferation Assay was used to measure cell proliferation/viability. The CC50 values were determined using ExcelFit software from the inhibition values of the titration curve for each compound.

Structure (SMILES)	EC50
NC(=O)c1sc2nc3c(c(-c4cccs4)c2c1N)CN(C(=S)NCCCc1ccccc1)C3 [Compound 86, 3-Amino-6-(3-phenyl-propylthiocarbamoyl)-4-thiophen-2-yl-6,7-dihydro-5H-1-thia-6,8-diaza-s-indacene-2-carboxylic acid amide]	1 to 10 µM
NC(=O)c1sc2nc3c(c(-c4cccs4)c2c1N)CCC3CC(=O)NC1CCC1 (stereo not shown) [Compound 50, 3-Amino-7-cyclobutylcarbamoylmethyl-4-thiophen-2-yl-6,7-dihydro-5H-cyclopenta[b]thieno[3,2-e]pyridine-2-carboxylic acid amide]	> 10 µM
CCCCCCCC1CCc2c1nc1sc(C(N)=O)c(N)c1c2-c1cccs1 (stereo not shown) [Compound 60, 3-Amino-7-heptyl-4-thiophen-2-yl-6,7-dihydro-5H-cyclopenta[b]thieno[3,2-e]pyridine-2-carboxylic acid amide]	> 10 µM
CCOC(=O)CN1Cc2nc3sc(C(N)=O)c(N)c3c(-c3cccs3)c2C1 [Compound 18, 3-Amino-6-carbethoxymethyl-4-thiophen-2-yl-6,7-dihydro-5H-1-thia-6,8-diaza-s-indacene-2-carboxylic acid amide]	> 10 µM
CC(CO)CN1Cc2nc3sc(C(N)=O)c(N)c3c(-c3cccs3)c2C1 (stereo not shown) [Compound 13, 3-Amino-6-(3-hydroxy-2-methyl-propyl)-4-thiophen-2-yl-6,7-dihydro-5H--thia-6,8-diaza-s-indacene-2-carboxylic acid amide]	1 to 10 µM
CCCCCCC1CCc2c1nc1sc(C(N)=O)c(N)c1c2-c1cccs1 (stereo not shown) [Compound 59, 3-Amino-7-hexyl-4-thiophen-2-6,7-dihydro-5H-cyclopenta[b]thieno[3,2-e]pyridine-2-carboxylic acid amide]	> 10 µM
NC(=O)c1sc2nc3c(c(-c4ccc(Cl)cc4)c2c1N)C(=O)CCC3 [Compound 77, 3-Amino-4-(4-chloro-phenyl)-5-oxo-5,6,7,8-tetrahydro-thieno[2,3-b]quinoline-2-carboxylic acid amide]	> 10 µM
NC(=O)c1sc2nc3c(c(-c4cccs4)c2c1N)CCCC3c1ccccc1 (stereo not shown) [Compound 66, 3-Amino-8-phenyl-4-thiophen-2-yl-5,6,7,8-tetrahydro-thieno[2,3-b]quinoline-2-carboxylic acid amide]	1 to 10 µM
NC(=O)c1sc2nc3c(c(-c4cccs4)c2c1N)CCC3CC(=O)N1CCOCC1 (stereo not shown) [Compound 38, 3-Amino-7-(2-morpholin-4-yl-2-oxo-ethyl)-4-thiophen-2-yl-6,7-dihydro-5H-cyclopenta[b]thieno[3,2-e]pyridine-2-carboxylic acid amide]	> 10 µM
CC1CCc2c(nc3sc(C(N)=O)c(N)c3c2-c2cccs2)C1 (stereo not shown) [Compound 74, 3-Amino-7-methyl-4-thiophen-2-yl-5,6,7,8-tetrahydro-thieno[2,3-b]quinoline-2-carboxylic acid amide]	> 10 µM
NC(=O)c1sc2nc3c(c(-c4cccs4)c2c1N)CN(Cc1ccccc1)C3 [Compound 21, 3-Amino-6-benzyl-4-thiophen-2-yl-6,7-dihydro-5H-1-thia-6,8-diaza-s-indacene-2-carboxylic acid amide]	1 to 10 µM
NC(=O)c1sc2nc3c(c(-c4cccs4)c2c1N)CN(C(=S)Nc1cccc(C(F)(F)F)c1)C3 [Compound 87, 3-Amino-4-thiophen-2-yl-6-(3-trifluoromethyl-phenylthiocarbamoyl)-6,7-dihydro-5H-1-thia-6,8-diaza-s-indacene-2-carboxylic acid amide]	> 10 µM
CC(C)(C)OC(=O)N1CCc2c(nc3sc(C(N)=O)c(N)c3c2-c2cccs2)C1 [Compound 30, 3-Amino-7-tert-butyloxycarbonyl-4-thiophen-2-yl-5,6,7,8-tetrahydro-1-thia-7,9-diaza-cyclopenta[b]naphthalene-2-carboxylic acid amide]	> 10 µM
NC(=O)c1sc2nc3c(c(-c4cccs4)c2c1N)CN(C(=S)NCCN1CCOCC1)C3 [Compound 93, 3-Amino-6-(2-morpholin-4-yl-ethylthiocarbamoyl)-4-thiophen-2-yl-6,7-dihydro-5H-1-thia-6,8-diaza-s-indacene-2-c arboxylic acid amide]	> 10 µM
NC(=O)c1sc2nc3c(c(-c4cccs4)c2c1N)CN(C(=S)NCC1CCCO1)C3 (stereo not shown) [Compound 80, 3-Amino-6-[(tetrahydro-furan-2-ylmethyl)-thiocarbamoyl]-4-thiophen-2-yl-6,7-dihydro-5H-1-thia-6,8-diaza-s-indacene-2-carboxylic acid amide]	> 10 µM
C=CCC1CCCc2c1nc1sc(C(N)=O)c(N)c1c2-c1cccs1 (stereo not shown) [Compound 70, 8-Allyl-3-amino-4-thiophen-2-yl-5,6,7,8-tetrahydro-thieno[2,3-b]quinoline-2-carboxylic acid amide]	1 to 10 µM

Structure (SMILES)	EC50
CC1CCCCN1CCCNC(=O)CC1CCc2c1nc1sc(C(N)=O)c(N)c1c2-c1cccs1 (stereo not shown) [Compound 58, 3-Amino-7-{[3-(2-methyl-piperidin-1-yl)-propylcarbamoyl]-methyl}-4-thiophen-2-yl-6,7-dihydro-5H-cyclopenta[b]thieno[3,2-e]pyridine-2-carboxylic acid amide]	> 10 µM
CC(C)CN1Cc2nc3sc(C(N)=O)c(N)c3c(-c3cccs3)c2C1 [Compound 14, 3-Amino-6-isobutyl-4-thiophen-2-yl-6,7-dihydro-5H-1-thia-6,8-diaza-s-indacene-2-carboxylic acid amide]	> 10 µM
CN(C)C(=O)CC1CCc2c1nc1sc(C(N)=O)c(N)c1c2-c1cccs1 (stereo not shown) [Compound 49, 3-Amino-7-dimethylcarbamoylmethyl-4-thiophen-2-yl-6,7-dihydro-5H-cyclopenta[b]thieno[3,2-e]pyridine-2-carboxylic acid amide]	> 10 µM
CCOC(=O)C1CCN(C(=O)CC2CCc3c2nc2sc(C(N)=O)c(N)c2c3-c2cccs2)CC1 (stereo not shown) [Compound 56, 1-[2-(3-Amino-2-carbamoyl-4-thiophen-2-yl-6,7-dihydro-5H-cyclopenta[b]thieno[3,2-e]pyridin-7-yl)-acetyl]-piperidine-4-carboxylic acid ethyl ester]	> 10 µM
COc1cccc(NC(=S)N2Cc3nc4sc(C(N)=O)c(N)c4c(-c4cccs4)c3C2)c1 [Compound 85, 3-Amino-6-(3-methoxy-phenylthiocarbamoyl)-4-thiophen-2-yl-6,7-dihydro-5H-1-thia-6,8-diaza-s-indacene-2-carboxylic acid amide]	> 10 µM
NC(=O)c1sc2nc3c(c(-c4cccs4)c2c1N)CN(CCOC(=O)c1ccccc1)C3 [Compound 9, 3-Amino-6-(2-benzoyloxy-ethyl)-4-thiophen-2-yl-6,7-dihydro-5H-1-thia-6,8-diaza-s-indacene-2-carboxylic acid amide]	1 to 10 µM
NC(=O)c1sc2nc3c(c(-c4cccs4)c2c1N)CN(C(=S)NC1CCCC1)C3 [Compound 81, 3-Amino-6-cyclopentylthiocarbamoyl-4-thiophen-2-yl-6,7-dihydro-5H-1-thia-6,8-diaza-s-indacene-2-carboxylic acid amide]	1 to 10 µM
NC(=O)c1sc2nc3c(c(-c4cccs4)c2c1N)CN(C(=S)Nc1cc(Cl)cc(Cl)c1)C3 [Compound 89, 3-Amino-6-(3,5-dichloro-phenylthiocarbamoyl)-4-thiophen-2-yl-6,7-dihydro-5H-1-thia-6,8-diaza-s-indacene-2-carboxylic acid amide]	> 10 µM
NC(=O)c1sc2nc3c(c(-c4cccs4)c2c1N)CCC3CC(=O)O (stereo not shown) [Compound 36, 3-Amino-7-carboxymethyl-4-thiophen-2-yl-6,7-dihydro-5H-cyclopenta[b]thieno[3,2-e]pyridine-2-carboxylic acid amide]	> 10 µM
NC(=O)c1sc2nc3c(c(-c4cccs4)c2c1N)CNC3 [Compound 2, 3-Amino-4-thiophen-2-yl-6,7-dihydro-5H-1-thia-6,8-diaza-s-indacene-2-carboxylic acidamide]	1 to 10 µM
COC(=O)CC1CCc2c1nc1sc(C(N)=O)c(N)c1c2-c1cccs1 (stereo not shown) [Compound 40, 3-Amino-7-carbomethoxymethyl-4-thiophen-2-yl-6,7-dihydro-5H-cyclopenta[b]thieno[3,2-e]pyridine-2-carboxylic acid amide]	> 10 µM
NC(=O)c1sc2nc3c(c(-c4cccs4)c2c1N)CN(Cc1ccccn1)C3 [Compound 7, 3-Amino-6-pyridin-2-ylmethyl-4-thiophen-2-yl-6,7-dihydro-5H-1-thia-6,8-diaza-s-indacene-2-carboxylic acid amide]	> 10 µM
NC(=O)c1sc2nc3c(c(-c4cccs4)c2c1N)CN(CC(=O)c1ccc(Cl)cc1)C3 [Compound 12, 3-Amino-6-[2-(4-chloro-phenyl)-2-oxo-ethyl]-4-thiophen-2-yl-6,7-dihydro-5H-1-thia-6,8-diaza-s-indacene-2-carboxylic acidamide]	1 to 10 µM
NC(=O)c1sc2nc3c(c(-c4cccs4)c2c1N)CCC3CC(=O)N1CCC(O)CC1 (stereo not shown) [Compound 52, 3-Amino-7-[2-(4-hydroxy-piperidin-1-yl)-2-oxo-ethyl]-4-thiophen-2-yl-6,7-dihydro-5H-cyclopenta[b]thieno[3,2-e]pyridine-2-carboxylic acid amide]	> 10 µM
CC(O)CNCCCN1Cc2nc3sc(C(N)=O)c(N)c3c(-c3cccs3)c2C1 (stereo not shown) [Compound 28, 3-Amino-6-[3-(2-hydroxy-propylamino)-propyl]-4-thiophen-2-yl-6,7-dihydro-5H-1-thia-6,8-diaza-s-indacene-2-carboxylic acidamide]	> 10 µM
